Test results taken from paper PMC7198766, “Structure-Activity Studies on the Hypertrehalosemic Hormone II of the Stick Insect Carausius morosus (Phasmatodea): Carbohydrate-Mobilization and Cardio-Stimulatory Activities” (Frontiers in Physiology, 2020).
Marks after values point to notes of the source that are not given here.

Columns and labels:
[1] = system: heart of neck-ligated Carausius morosus; design: method as in Marco et al., 2018; conditions: C. morosus heart, dose-dependent; ref Marco et al., 2018; cited from earlier work
[2] = system: ligated 6th instar Indian stick insects (Carausius morosus); assay: Carbohydrate-mobilization (hypertrehalosemic) in vivo assay; conditions: for % Activity relative to the effect of Carmo-HrTH-II (metabolic): 20 pmol peptide injected, carbohydrate increase relative to Carmo-HrTH-II = 100, NS = no significant increase; for Hemolymph carbohydrates, 90 min: 90 min after injection of 20 pmol peptide in 10 μl; for Hemolymph carbohydrates, 90 min / Hemolymph carbohydrates, Difference: neck-ligated 6th instar nymphs; for Hemolymph carbohydrates, Difference: 90 min minus 0 min, 20 pmol peptide in 10 μl injected; for Hemolymph carbohydrates, 0 min: before injection (0 min), 2 h after neck ligation, group later given 20 pmol peptide in 10 μl, 6th instar nymphs
Procedure: Sixth instar nymphs that were 1–2 days before molting were neck-ligated and used in the hypertrehalosemic in vivo assay as described in detail by [Gäde and Lohr (1982)]. Stock peptide solutions (5 pmol μl^–1) were diluted with distilled water to the desired concentration in 10 μl, which was injected into the stick insect nymphs.
In the first series of experiments, various doses of synthetic Carmo-HrTH-II and corpora cardiaca (CC) extract of C. morosus were used to determine the maximal hypertrehalosemic response of C. morosus. Hemolymph samples were taken from 17 to 18 days old 6th instar nymphs 2 h after they were neck-ligated and then 90 min after either CC extract or synthetic Carmo-HrTH-II was injected. Ligated nymphs injected with distilled water served as controls for handling stress. As depicted in Figures 1A,B, various doses of both Carmo-HrTH-II and CC extract increased the level of carbohydrates in the hemolymph in a dose-dependent manner. A dose of 0.04 pmol of synthetic Carmo-HrTH-II and the equivalent of 0.005 pairs of corpora cardiaca (pCC) were sufficient to give significant increases in hemolymph carbohydrates (p < 0.05). […] Doses of 0.1–0.5 pCC gave an average increase of 5.6 ± 0.6 mg carbohydrates ml^–1 hemolymph (Figure 1B); again, statistical analyses reveal no significant difference between the effect of these doses (p > 0.05).
Based on these pilot experiments, we selected a dose of 20 pmol for testing the analogs of Carmo-HrTH-II since such a dose of our lead compound, Carmo-HrTH-II had achieved maximal hypertrehalosemic activity.

[3] = system: heart of neck-ligated Carausius morosus; assay: Semi-exposed heart bioassay (heart beat rate); format: in vivo; conditions: for Heart rate, Post-application: after application of 20 pmol peptide in 150 μl saline, average of first four counts; for Heart rate, Post-application / Heart rate, Pre-application: neck-ligated stick insects; for Heart rate, Pre-application: in saline before application, semi-exposed heart; for Heart rate, Difference: post- minus pre-application; for Heart rate, Difference / % Activity relative to the effect of Carmo-HrTH-II (myotropic): 20 pmol peptide in 150 μl; for % Activity relative to the effect of Carmo-HrTH-II (myotropic): heart rate increase relative to Carmo-HrTH-II = 100, NS = no significant increase
Procedure: The semi-exposed heart bioassay was carried out as described ([Marco et al., 2018]) with adult stick insects between 1 and 2 months old that were ligated at the neck. Briefly, a ventral incision of the abdomen exposed the ventral cavity with the internal organs; a few drops of stick insect saline (pH 6.6; 15 mM NaCl, 18 mM KCl, 7.5 mM CaCl2, 2 mM HEPES, 50 mM MgCl2, and 184 mM glucose according to [Ejaz and Lange, 2008]) were added to the exposed part. The semi-isolated heart preparation was viewed with a dissecting microscope (12-fold magnification), and the number of observed heart beats (contractions of the heart muscle) was counted during a fixed period using a manual tally counter and a timer. Once the heart had stabilized, saline was replaced with the test solution. For this the peptide stock solution of 5 pmol μl^–1 was diluted with stick insect saline to the desired concentration and a final volume of 150 μl was used for each test.
Heart rates under normal saline served as controls. The change in heart rate after the application of the test solution was calculated as an average of the first four counts and was compared to the average heart rates counted in saline before the application of the test solution. This comparison of change in heart rates was done for all the peptides tested.

Row | Compound | Effect on contraction of the heart [1] | % Activity relative to the effect of Carmo-HrTH-II (metabolic) [2] | Hemolymph carbohydrates, 90 min [2] [mg/mL] | Hemolymph carbohydrates, Difference [2] [mg/mL] | Hemolymph carbohydrates, 0 min [2] [mg/mL] | Heart rate, Post-application [3] [beats min^−1] | Heart rate, Pre-application [3] [beats min^−1] | Heart rate, Difference [3] [beats min^−1] | % Activity relative to the effect of Carmo-HrTH-II (metabolic) ([2]; listed as Ala^10 analog of Carmo-HrTH-II) | % Activity relative to the effect of Carmo-HrTH-II (myotropic) [3]
1 | NCC(O)c1ccc(O)cc1 (stereo not shown) [octopamine] | inhibits the contraction of the heart |  |  |  |  |  |  |  |  | 
2 | pGlu-Leu-Thr-Phe-Thr-Pro-Asn-Trp-Ala-Thr amide [Ala^9-Carmo-HrTH-II] |  | 28% | 11.0 ± 1.5 | 1.5 ± 0.9 | 9.5 ± 1.9 | 38 ± 2 | 39 ± 2 | −1 ± 1 |  | 
3 | pGlu-Leu-Thr-Phe-Thr-Pro-Asn-Trp-Gly-Ala amide [Ala^10-Carmo-HrTH-II] |  |  | 12.4 ± 1.6 | 2.5 ± 1.0 | 9.9 ± 2.3 | 41 ± 5 | 41 ± 5 | 0 ± 1 | about 50% | 
4 | pGlu-Leu-Thr-Phe-Thr-Pro-Asn-Trp-Gly-Ser amide [Phyle-CC, naturally-occurring AKH decapeptide bioanalog, reference compound] |  | 109^b % | 14.1 ± 1.7 | 5.9 ± 1.7 | 8.2 ± 1.9 | 46 ± 6 | 38 ± 7 | 8 ± 2 |  | 67^b %
5 | pGlu-Leu-Thr-Phe-Thr-Pro-Asn-Trp-Gly-Thr OH [Carmo-HrTH-II: free C-terminus] |  | 30% | 10.4 ± 2.2 | 1.6 ± 1.6 | 8.8 ± 2.1 | 47 ± 3 | 40 ± 5 | 7 ± 3 |  | 58%
6 | pGlu-Leu-Thr-Phe-Thr-Pro-Ser-Trp amide [Aedae-AKH, naturally-occurring AKH octapeptide bioanalog, reference compound] |  |  | 8.8 ± 1.2 | 0.7 ± 1.1 | 8.1 ± 1.4 | 43 ± 6 | 42 ± 6 | 1 ± 1 |  | 8%
7 | pGlu-Val-Asn-Phe-Thr-Pro-Asn-Trp-Gly-Thr amide [Rommi-CC, naturally-occurring AKH decapeptide bioanalog, reference compound] |  | 48% | 10.6 ± 1.6 | 2.6 ± 1.5 | 8.0 ± 1.4 | 57 ± 4 | 39 ± 3 | 18 ± 6 |  | 150^b %
